Assay results taken from US20220089646A1 (THE UNIVERSITY OF QUEENSLAND, priority 2019, published 2022).
*1 amine or outer side, *2 acyl side, *3 side chain or, on linkers, in order; H or OH if unused. Where a SMILES comes first, the peptide text is derived from it. Bridges are numbered along the chain shown (N, C = ends). [ ]: non-standard residue; d: D form. NHCH2CMe2S = CC(C)(CN[*:1])S[*:2]

How the values were obtained:
[1] = biological target: DOP (Homo sapiens, UniProt P41143); assay: Inhibition of Forskolin-induced cAMP production in HEK-DOP cells (AlphaScreen, DP series); format: cell-based; conditions: for IC50: Forskolin 50 μM/well, 95% CI in brackets; for IC80: approximate IC80, 'EC anything' protocol
Protocol: DP-7-11 and DP-7-12 were assessed for the ability to inhibit cAMP production in HEK-DOP and HEK KOP cells.
The HEK-293 DOP (HEK-DOP) and HEK-293 KOP (HEK-KOP) cell lines were cultured in a T75 flask, in Dulbeco's Modified Eagle's Medium (DMEM) complete with 10% (v/v) fetal bovine serum (FBS) and 1% (v/v) Geneticin. Cells were incubated in a humidified atmosphere of 37° C. (95% air and 5% CO2). Cells were passaged at 80-90% confluence and media was changed every two days.
Stimulation buffer and Lysis buffer were prepared fresh on the day of each assay. Stimulation buffer contained 19.5 mL Hanks buffered saline solution, Bovine serum albumin (BSA) 0.1% (w/v), 0.5 mM 3-Isobutyl-1-methylxanthine (IBMX) and 5 mM HEPES (4-(2-hydroxyethyl)-1-piperazineethanesulfonic acid). Lysis buffer contained 19 mL Mili-Q H2O, BSA 0.1% (w/v), 0.3% (v/v) 10% Tween-20, and 5 mM HEPES. Both buffers were adjusted to pH 7.4 with NaOH.
The cAMP standard dilution series was prepared from the 50 μM cAMP standard solution provided by the cAMP assay kit. The standard solution was vortexed before being serially diluted to provide a concentration range of 5×10^−6 M to 5×10^−11 M in ½ Log intervals.
For this assay, Forskolin was optimised at 50 μM/well. 25 mM stocks were used to prepare 0.2 mM Forskolin. The concentration of Forskolin prepared was 4 times the required concentration in the well to account for further dilution in the well. 0.1 mM Forskolin solution was then made from this and used to dilute the peptide solutions.
DP-7-11 and DP-7-12 provided in powder form and reconstituted to 10 mM stock solutions and diluted to 1 mM working stocks using Mili-Q H2O. Each peptide solution was serially diluted to give concentrations of 1×10^−6 to 3×10^−7 M with stimulation buffer.
Stimulation buffer was added to the 0.2 mM Forskolin solution in a 1:1 ratio to prepare the Forskolin only treatment solution. This was the positive control. Stimulation buffer was used as the negative control.
Cells were harvested from two T75 flasks on the day of experimentation. Identical protocol was used for both DOP and KOP cells. The cells were first removed from the incubator and washed with Versene®. The cells were then incubated in 2 mL of Versene® at 37° C. for 5 minutes. Following this, the mixture was made up to 5 mL with Versene® in a centrifuge tube. This was centrifuged at 1300 rpm for 2 minutes at 23° C. The supernatant was then decanted and the cells resuspended in 100 μL stimulation buffer for counting. A hemocytometer was used to count the cells. This assay required the concentration of cells to be 13300 cells/μL
This method was used to conduct all cAMP Alphascreen assays. The acceptor bead mixture consisted of acceptor beads and stimulation buffer mixed according to the ratio 1:35 given in the kit. From this, the acceptor beads mixture was used to prepare separate mixtures for the cAMP standard curve and for the treatment wells of the assay. For the treatment wells, the beads were mixed with cells in a 1:1 ratio. For the cAMP standard curve, the beads were mixed with more stimulation buffer in a 1:1 ratio. The donor bead mixture consisted of donor beads, biotinylated cAMP and lysis buffer mixed in the ratio 1:3:300.
The DP series compounds were assayed as follows: The assay was performed using a 96 well ½ area plate. The different cAMP standard solutions (3 μL/well) were plated in duplicate. The different concentrations of drug (3 μL/well), and control solutions (3 μL/well) were plated in triplicate. Following this, the acceptor bead mixture (3 μL/well) was added to the respective sets—either cAMP standard curve or the treatment. This was covered and incubated on the orbital shaker for 30 minutes at room temperature. Then, the donor bead mixture (10 μL/well) was added to each well. This was incubated at room temperature overnight on the orbital shaker. […]

[2] = biological target: MOP (Homo sapiens, UniProt P35372); assay: In vitro cAMP activity at MOP (Table 10); format: cell-based; conditions: cAMP inhibition, four-parameter regression
Protocol: The CP series compounds were assayed as follows: The assay was performed using a 96 well ½ area plate. The different cAMP standard solutions (3 μL/well) were plated in duplicate. The different concentrations of drug (3 μL/well), and control solutions (3 μL/well) were plated in triplicate. Following this, the acceptor bead mixture (3 μL/well) was added to the respective sets—either cAMP standard curve or the treatment. This was covered and incubated on the orbital shaker for 60 minutes at 37° C. Then, the donor bead mixture (10 μL/well) was added to each well. This was incubated at room temperature overnight on the orbital shaker.
For DP-11-06 the assay was carried out in the same way as for the CP compounds except it was incubated for 30 mins at 37° C.
For the CP series compounds and DP-11-06, the Ensight® Multimode Plate Reader was used to quantify the fluorescence units of each plate. Before reading, each plate was centrifuged at 280 g for 30 seconds. Using GraphPad Prism7® Software, cAMP concentrations were determined by fit spline/LOWESS analysis. The cAMP standard curve was used for interpolation at this point. The cAMP concentrations were then normalized to the highest cAMP concentration recorded and analyzed by one-way ANOVA for multiple comparisons. The IC50 for each compound was then calculated using GraphPad Prism7® with non-linear regression analysis using four parameter curve fitting.
In this regard, a different regression analysis method was adopted on the above cAMP experiments. Particularly, a new non-linear regression (four-parameter) was adopted to better account for hill slope, thereby improving the regression fit.

[3] = concentration-response curve, % cAMP

Sequence of DOP (P41143 whole entry): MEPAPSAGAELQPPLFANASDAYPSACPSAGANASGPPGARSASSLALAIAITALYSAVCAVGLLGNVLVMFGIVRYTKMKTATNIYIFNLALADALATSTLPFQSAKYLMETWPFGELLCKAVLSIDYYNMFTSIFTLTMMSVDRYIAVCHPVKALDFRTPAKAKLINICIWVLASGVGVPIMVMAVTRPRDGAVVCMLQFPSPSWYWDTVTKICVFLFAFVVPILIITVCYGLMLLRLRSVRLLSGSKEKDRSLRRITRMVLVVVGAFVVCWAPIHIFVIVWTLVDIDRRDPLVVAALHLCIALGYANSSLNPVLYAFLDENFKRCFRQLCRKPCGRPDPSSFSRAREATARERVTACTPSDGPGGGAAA
Sequence of MOP (P35372 whole entry): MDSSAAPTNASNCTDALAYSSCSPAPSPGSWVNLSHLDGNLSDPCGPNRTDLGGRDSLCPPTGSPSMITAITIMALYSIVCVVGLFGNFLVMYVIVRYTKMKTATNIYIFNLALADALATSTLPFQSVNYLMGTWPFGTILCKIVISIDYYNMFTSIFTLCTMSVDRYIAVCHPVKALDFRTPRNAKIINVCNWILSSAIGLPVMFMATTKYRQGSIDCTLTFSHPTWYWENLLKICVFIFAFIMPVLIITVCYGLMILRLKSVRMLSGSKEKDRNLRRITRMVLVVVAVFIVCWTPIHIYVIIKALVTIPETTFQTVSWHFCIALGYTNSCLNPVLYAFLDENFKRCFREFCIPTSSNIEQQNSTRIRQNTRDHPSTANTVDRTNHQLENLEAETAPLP

Row | SMILES | IC50 [1] | IC80 [1] | Maximum cAMP response, HEK-DOP [1, 3] | Minimum cAMP response, HEK-DOP [1, 3] | EC50 [2] | Potency at DOP relative to KOP ([1]; cAMP IC50 DOP vs KOP)
1 | CC1(C)CNC(=O)C[C@H](C(=O)N[C@@H](CCCNC(=N)N)C(=O)N[C@@H](CCCNC(=N)N)C(N)=O)NC(=O)[C@H](Cc2ccccc2)NC(=O)CNC(=O)[C@@H](NC(=O)[C@@H](N)Cc2ccc(O)cc2)CSS1 [DP-7-11, c(Tyr-SSa-Gly-Phe-D(Asp)-Arg-Arg)] | 1.83 nM | 24.1 nM | 93.79% | 23.13% | > 10000 nM | –
2 | CC1(C)CNC(=O)C[C@@H](NC(=O)[C@@H](N)Cc2ccc(O)cc2)C(=O)NCC(=O)N[C@@H](Cc2ccccc2)C(=O)N[C@H](C(=O)N[C@@H](CCCNC(=N)N)C(=O)N[C@@H](CCCNC(=N)N)C(N)=O)CSS1 [DP-7-12, c(Tyr-D(Asp)-Gly-Phe-SSa-Arg-Arg)] (H-Y[dD]GFCRR-NH2; linker 2-5 via NHCH2CMe2S) | 0.608 nM | 2.72 nM | 14.03% | – | 2.7 nM | ten times
